Literature values as cited in US9763983B2, “Natural killer cells from placenta” (ANTHROGENESIS CORPORATION, priority 2013, dated 2017).

Conditions: disclosed in US 2005/0096351 A1; for hygroscopicity: polymorphic form

| Structure (SMILES) | stability / interconversion of polymorphic form | hygroscopicity |
| --- | --- | --- |
| Nc1cccc2c1CN(C1CCC(=O)NC1=O)C2=O (stereo not shown) [Form A, 3-(4-amino-1-oxo-1,3 dihydro-isoindol-2-yl)-piperidene-2,6-dione] | most thermodynamically stable anhydrous polymorph | weakly or not hygroscopic |
| Nc1cccc2c1CN(C1CCC(=O)NC1=O)C2=O (stereo not shown) [Form B, 3-(4-amino-1-oxo-1,3 dihydro-isoindol-2-yl)-piperidene-2,6-dione] | converts to Form E in aqueous solvent systems | – |
| Nc1cccc2c1CN(C1CCC(=O)NC1=O)C2=O (stereo not shown) [Form C, 3-(4-amino-1-oxo-1,3 dihydro-isoindol-2-yl)-piperidene-2,6-dione] | can convert to Form B at higher relative humidities | not hygroscopic below about 85% RH |
| Nc1cccc2c1CN(C1CCC(=O)NC1=O)C2=O (stereo not shown) [Form D, 3-(4-amino-1-oxo-1,3 dihydro-isoindol-2-yl)-piperidene-2,6-dione] | convert to Form B when stressed at higher relative humidities | either weakly or not hygroscopic |
